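The compound was tested at five concentrations on cells cultured in 96-well plates, with a 48-hour exposure period. Abbreviation: GI50, concentration required for 50% inhibition of growth. TGI: total growth inhibition.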
How the values were obtained:
Assay in all cases: NCI tumour cell line growth inhibition, 48 h
COLO 205 colon = system: COLO 205 colon
HCC-2998 colon = system: HCC-2998 colon
HL-60(TB) leukemia = system: HL-60(TB) leukemia
HT29 colon = system: HT29 colon
NCI/ADR-RES ovarian = system: NCI/ADR-RES ovarian
PC-3 prostate = system: PC-3 prostate
RPMI-8226 leukemia = system: RPMI-8226 leukemia
SK-MEL-5 melanoma = system: SK-MEL-5 melanoma
T-47D breast = system: T-47D breast
EKVX NSCLC = system: EKVX NSCLC

| SMILES | GI50 (COLO 205 colon) | TGI (COLO 205 colon) | GI50 (HCC-2998 colon) | TGI (HCC-2998 colon) | GI50 (HL-60(TB) leukemia) | TGI (HL-60(TB) leukemia) | GI50 (HT29 colon) | TGI (HT29 colon) | GI50 (NCI/ADR-RES ovarian) | TGI (NCI/ADR-RES ovarian) | GI50 (PC-3 prostate) | TGI (PC-3 prostate) | GI50 (RPMI-8226 leukemia) | TGI (RPMI-8226 leukemia) | GI50 (SK-MEL-5 melanoma) | TGI (SK-MEL-5 melanoma) | GI50 (T-47D breast) | TGI (T-47D breast) | TGI (EKVX NSCLC) | GI50 (EKVX NSCLC) |
| --- | --- | --- | --- | --- | --- | --- | --- | --- | --- | --- | --- | --- | --- | --- | --- | --- | --- | --- | --- | --- |
| CC/C(=C(/c1ccc(O)cc1)c1ccc(OCCN)cc1)c1ccccc1 | 1.95 µM | 3.75 µM | 1.95 µM | 3.72 µM | 2.18 µM | 5.36 µM | 2.49 µM | 5.78 µM | 3.31 µM | 10.6 µM | 2.66 µM | 8.26 µM | 2.37 µM | 5.65 µM | 1.97 µM | 4.3 µM | 1.67 µM | 5.94 µM |  |  |
| N#CCCCCCOCCOCCOCCOCCOCCCCCC#N |  | > 100 µM |  | > 100 µM |  | > 100 µM |  | > 100 µM |  |  |  |  |  |  |  | > 100 µM |  |  | > 100 µM |  |
| c1ccc2cc(NCNc3ccc4ccccc4c3)ccc2c1 |  | 34.3 µM |  |  |  | 3.79 µM |  | 41.3 µM |  | 72.5 µM |  | > 58.3 µM |  | 29.1 µM |  | 18.5 µM |  | 49.4 µM | 65.5 µM |  |
| CCCNCC(=O)O[C@]1(CC)C(=O)OCc2c1cc1n(c2=O)Cc2cc3ccccc3nc2-1 |  | 3.07 µM |  | 4.36 µM |  | 0.553 µM |  | > 100 µM |  |  |  |  |  | 0.88 µM |  | 0.304 µM |  |  | > 100 µM |  |
| O=C(NCc1cccnc1)C1COc2cc(-c3cc(=O)c4ccccc4o3)ccc2O1 (stereo not drawn) |  | > 100 µM |  | > 100 µM |  | > 46.4 µM |  | > 100 µM |  |  |  |  |  | > 100 µM |  | > 100 µM |  |  | > 100 µM |  |
| COc1cccc(/C=N/NC(=O)c2ccccc2N2CCCC2)c1O | 3.03 µM | > 100 µM | 47 µM | > 100 µM |  |  | 30.4 µM | > 100 µM | 2.8 µM | > 100 µM | 6.48 µM | > 100 µM | 3.74 µM | > 100 µM | 5.3 µM | 24.4 µM | 3.02 µM | 36.9 µM | > 100 µM | 3.32 µM |
| O=C(OC1CCC2OOC1O2)c1ccc([N+](=O)[O-])cc1 (stereo not drawn) |  | > 100 µM |  | > 100 µM |  | > 100 µM |  | > 100 µM |  |  |  |  |  | > 100 µM |  | > 100 µM |  |  | > 100 µM |  |
| Nc1nc(Cl)cc(NCC(O)CO)n1 (stereo not drawn) |  | > 100 µM |  | > 100 µM |  | > 100 µM |  | > 100 µM |  |  |  |  |  | > 100 µM |  | > 100 µM |  |  | > 100 µM |  |
| CCOC(=O)C(N=C(c1ccccc1)c1ccccc1)N(C(=O)OC(C)(C)C)C(=O)OC(C)(C)C (stereo not drawn) |  | > 100 µM |  | > 100 µM |  |  |  | > 100 µM |  |  |  |  |  | > 100 µM |  | > 100 µM |  |  | > 100 µM |  |
| Cc1cc(Nc2ncc3c(n2)N(C)C(=O)N(c2cc(NC(=O)c4cccc(C(F)(F)F)c4)ccc2C)C3)n(C)n1 | 0.019 µM | 0.0368 µM | 0.541 µM | > 46.4 µM | 0.0365 µM |  | 0.023 µM | 0.0864 µM | 0.97 µM | > 31.6 µM | 0.105 µM | > 31.6 µM | 0.641 µM | 18.6 µM | 0.283 µM | 7.87 µM | 0.0438 µM | 2.24 µM |  |  |
| COc1cc2c(cc1OC)CC(=O)Nc1cc(OC)c(OC)cc1CC2 |  | > 100 µM |  | > 100 µM |  | 64.3 µM |  | > 100 µM |  |  |  |  |  | > 20 µM |  | 71 µM |  |  | > 100 µM |  |
| CCOC(=O)Nc1nc2ccc(Br)cc2s1 | > 50 µM | > 50 µM | > 50 µM | > 50 µM | > 50 µM | > 50 µM | > 50 µM | > 50 µM | > 50 µM | > 50 µM | > 50 µM | > 50 µM | > 50 µM | > 50 µM | > 50 µM | > 50 µM | > 50 µM | > 50 µM |  |  |
| COc1ccc(NC(=O)CC/C(CC(=O)c2ccco2)=N/NC(N)=S)cc1 |  | > 100 µM |  | > 100 µM |  | > 100 µM |  | > 100 µM |  |  |  |  |  | > 100 µM |  |  |  |  | > 100 µM |  |
| CC[C@@]1(O)C(=O)OCc2c1cc1n(c2=O)Cc2cc3cccc([N+](=O)[O-])c3nc2-1 | 4.63 µM | 25.9 µM | 4.92 µM | 31.8 µM | 0.365 µM | > 100 µM | 2.18 µM | > 100 µM |  |  |  |  | 1.71 µM | 64.5 µM | 1.18 µM | 2.74 µM |  |  | > 100 µM | 96.9 µM |
| C#CCN(Cc1nc2cc(C(F)(F)F)ccc2nc1-c1ccccc1)c1ccc(C)cc1 | 2.79 µM |  |  |  | 3.85 µM | > 74.5 µM | 12.4 µM | > 32 µM | 4.58 µM |  | > 62.6 µM | > 100 µM | > 48.5 µM | > 76.3 µM | 17 µM | > 32.4 µM | 2.85 µM | 31.6 µM | > 62.1 µM | 29.1 µM |
| CC(C)(C)[Si](C)(C)OC1[C@@H](O[Si](C)(C)C(C)(C)C)[C@@H](CNC(=O)NC(=O)CF)O[C@H]1n1cnc2c(NC(=O)Nc3ccccc3)ncnc21 (stereo partly drawn) | 7.66 µM | 18.4 µM | 9.23 µM | 31.3 µM | 17.4 µM | > 50 µM | 7.35 µM | 25.9 µM | 48.5 µM | > 50 µM | 2.19 µM | > 50 µM | 14 µM | > 50 µM | 3.07 µM | 25.6 µM | 4.7 µM | > 50 µM |  |  |
| CC1(Br)CC2OC3(Br)C=CC(C)(O)C2(CC1=O)C3(C)C (stereo not drawn) |  | > 100 µM |  | > 100 µM |  |  |  | > 100 µM |  |  |  |  |  | > 100 µM |  | > 100 µM |  |  | > 100 µM |  |
| COc1ccc2cc(C(=O)/C=C/c3ccc(N(C)C)cc3)ccc2c1 | > 100 µM | > 100 µM |  |  | > 100 µM | > 100 µM | > 100 µM | > 100 µM | 49.8 µM | > 100 µM | > 100 µM | > 100 µM | > 100 µM | > 100 µM | 36.9 µM | 72.8 µM | > 100 µM | > 100 µM | 72.1 µM | 21 µM |
| Cn1cc(C2=C(c3c4n(c5ccccc35)CCC(CN)C4)C(=O)NC2=O)c2ccccc21 (stereo not drawn) | 1.63 µM | 5.15 µM | 3.49 µM | 7.14 µM | 4.13 µM | 8.77 µM | 2.67 µM | 5.95 µM | 14.9 µM | 25 µM | 2.77 µM | 6.59 µM | 3.93 µM | 9.61 µM | 3.99 µM | 7.82 µM | 3.17 µM | 7.49 µM |  |  |
